Structures can show the parent of a compound that is named as a salt. Where two headings read alike, the source gives them in different places.
Legend:
Proteus morganii 251 = assay: bacterial inactivation; conditions: 4 hours incubation; assayed on B. subtilis (MB-964)
Method: (§1) These cultures are: Escherichia coli 236, Proteus morganii 251, Proteus morganii 356 and Proteus mirabilis 241. […] In conducting the assay, individual mixtures of the organisms and one of the antibiotics were sampled after 4 hours incubation and assayed for residual antibiotic activity. The procedure is the same assay method as described above against Alcaligenes faecalis MB-9 and A. viscosus MB-12.

Proteus mirabilis 241 = assay: bacterial inactivation; conditions: 4 hours incubation; assayed on B. subtilis (MB-964)
Method: as §1

Proteus morganii 356 [1] = assay: bacterial inactivation; conditions: 4 hours incubation; assayed on B. subtilis (MB-964)
Method: as §1

Escherichia coli 236 = assay: bacterial inactivation; conditions: 4 hours incubation; assayed on B. subtilis (MB-964)
Method: as §1

[2] = system: gram-negative and gram-positive bacteria; conditions: background statement, cited from earlier work
[3] = system: Alcaligenes faecalis (MB-9); conditions: organism known to inactivate; cited from earlier work
[4] = system: Alcaligenes faecalis (MB-9); assay: bacterial inactivation by washed cells
[5] = system: Alcaligenes viscosus (MB-12); assay: bacterial inactivation by washed cells; conditions: 4 hour incubation; assayed on B. subtilis (MB-964)
cephalosporinases = conditions: background statement; cited from earlier work
[6] = system: Alcaligenes viscosus (MB-12); conditions: organism known to inactivate; cited from earlier work
[7] = system: Aerobacter cloacae (MB-2646); assay: inactivation by cell-free filtrate; format: biochemical; conditions: for Antibiotic Activity Remaining: starting concentration 250 μg./ml.
Method: The ability of Antibiotic 810A and cephalosporin C to withstand the degradative effect of the culture Aerobacter cloacae (MB-2646) was also determined. This culture is gram-negative and resistant to cephalosporin C. […] The source of the inactivating substance is a 1:160 dilution of the filtrate of an 18 hour 37° C. shake culture of Aerobacter cloacae MB-2646 in nutrient broth containing 0.2% yeast extract. Table XIV, infra, indicates the percent inactivation of Antibiotic 810A, cephalothin, cephaloridine and cephalosporin C on Vibrio percolans (MB-1272) via this method:
Using the same assay procedure as described above, Table XV, infra, indicates the relative resistance of Antibiotic 810A to enzymatic inactivation by Aerobacter cloacae. The starting concentration in 250 μg./ml. Results are expressed in μg./ml.

penicillinase = conditions: background statement; cited from earlier work
[8] = system: Vibrio percolans (MB-1272); assay: disc-plate assay using Vibrio percolans; conditions: Comamonas terrigena, read-out: concentration giving a 25 mm. zone, Example 11 concentrate at a dilution of 1:100
Proteus morganii 356 [9] = assay: mouse protection test, clinical isolate; format: in vivo, mice; conditions: subcutaneous route × 2 doses (average of two trials)
Method: (§2) Methods: The method employed in this characterization is as follows: Female white Swiss mice, average weight 20-23 grams, were infected intraperitoneally with 3-20 times the number of organisms calculated to be lethal for 50% of the infected control animals (3-20 LD50 doses). At the time of infection and again 6 hours later, therapy was given by the designated route. Controls of the virulence of the culture and the toxicity of the antibiotic for uninfected mice were included in the tests. Seven days after infection the test was considered complete and the amount of the antibiotic (I) that would be required to protect 50% of the infected and treated animals was calculated by the method of Knudsen and Curtis: J. Amer. Stat. Assoc. Vol. 42: page 282 (1947).
Administration was by subcutaneous injection. At the completion of the test period, usually 7 days after administration, the amount of product required to protect 50% of the mice (ED50) from this otherwise fatal injection was calculated:
In addition to the aforementioned in vivo trials of the product, a clinical isolate of Proteus morganii 356 which is resistant to cephalosporins and capable of degrading cephalosporin C, was employed in a mouse protection test performed in the same manner as reported above.

[10] = system: Alcaligenes faecalis (MB-9); conditions: 3 h
Proteus morganii 3202 = assay: in vivo protection of infected mice; conditions: subcutaneous; 4000 mg. × 2 doses (so in the source)
Method: as §2
The method employed in these studies is the same as described above with regard to the in vivo characterization of 810A. The results of these tests are described below in Table XIb:
Administration was by subcutaneous injection. At the completion of the test period, usually 7 days after administration, the amount of product required to protect 50% of the mice (ED50) from this otherwise fatal injection was calculated: […]

[11] = 2 hour incubation, assayed on V. percolans (MB-1272)
[12] = 2 hour incubation, assay organism B. subtilis 964
[13] = 2 hour incubation, assay organism V. percolans 1272

Q: Which percent inactivation (Proteus morganii 251) does the source give for `CC(=O)OCC1=C(C(=O)O)N2C(=O)[C@@H](NC(=O)CCC[C@@H](N)C(=O)O)[C@H]2SC1` [Cephalosporin C] here?
A: > 99%

Q: And the percent inactivation (Proteus mirabilis 241)?
A: 72%

Q: What about the percent inactivation (Proteus morganii 356 [1]) of the same molecule?
A: > 99%

Q: And the percent inactivation (Escherichia coli 236)?
A: > 99%

Q: What about the antibacterial activity [2] of the same molecule?
A: only moderately active

Q: And the antibacterial activity ([2]; listed as cephalosporin C)?
A: relatively low antibacterial activity

Q: What about the “inactivation of cephalosporin C” value [3] of the same molecule?
A: completely inactivate

Q: What about the “Percent Inactivation After Incubation With Washed Bacterial Cells” value ([4]; 3 hour incubation, assayed on B. subtilis (MB-964), 4 mg./ml.) of the same molecule?
A: > 99%

Q: What about the “Percent Inactivation After Incubation With Washed Bacterial Cells” value ([4]; 3 hour incubation, assayed on V. percolans (MB-1272)) of the same molecule?
A: > 99%

Q: And the “Percent Inactivation After Incubation With Washed Bacterial Cells” value ([4]; 4 hour incubation, assayed on B. subtilis (MB-964))?
A: > 99%

Q: And the “Percent Inactivation After Incubation With Washed Bacterial Cells” value [5]?
A: > 99%

Q: And the behaviour toward cephalosporinases (cephalosporinases)?
A: effective in destroying its activity

Q: And the “inactivation of cephalosporin C” value [6]?
A: completely inactivate

Q: And the “Percent Inactivation After Incubation With Cell-Free Extract” value [7, 11]?
A: 96%

Q: What about the behaviour toward penicillinase (penicillinase) of the same molecule?
A: inherent resistance to penicillinase

Q: With `CO[C@@]1(NC(=O)CCC[C@@H](N)C(=O)O)C(=O)N2C(C(=O)O)=C(COC(N)=O)CS[C@@H]21` [Sodium Salt] as the molecule, how does the IC (25 mm zone) [8] read?
A: 400 µg/mL

Q: Which behaviour toward penicillinase (penicillinase) does the source give for `CC1(C)S[C@@H]2[C@H](NC(=O)Cc3ccccc3)C(=O)N2[C@H]1C(=O)O` [Penicillin G] here?
A: degraded to a form which is ineffective against most pathogens

Q: With `CC(=O)OCC1=C(C(=O)O)N2C(=O)[C@@H](NC(=O)Cc3cccs3)[C@H]2SC1` [Cephalothin] as the molecule, how does the ED50 (Proteus morganii 356 [9]) read?
A: > 20,000 μg.

Q: And the “Percent Inactivation After Incubation With Washed Bacterial Cells” value [10]?
A: 50%

Q: And the “protection of infected mice” value (Proteus morganii 3202)?
A: failed to protect

Q: What about the “Percent Inactivation After Incubation With Cell-Free Extract” value [7, 11] of the same molecule?
A: 66%

Q: And the “Antibiotic Activity Remaining” value [7, 12]?
A: 140 µg/mL

Q: And the “Antibiotic Activity Remaining” value [7, 13]?
A: 85 µg/mL

Q: For `O=C(Cc1cccs1)N[C@@H]1C(=O)N2C(C(=O)[O-])=C(C[n+]3ccccc3)CS[C@H]12` [Cephaloridine], which ED50 (Proteus morganii 356 [9]) is on record?
A: 9,270 μg.

Q: And the “protection of infected mice” value (Proteus morganii 3202)?
A: failed to protect

Q: And the “Percent Inactivation After Incubation With Cell-Free Extract” value ([7]; aerobacter cloacae culture filtrate, 2 h)?
A: 96%

Q: What about the “Antibiotic Activity Remaining” value [7, 12] of the same molecule?
A: < 10 µg/mL

Q: And the “Antibiotic Activity Remaining” value [7, 13]?
A: < 10 µg/mL

From US4036696A, “Preparation of antibiotics by fermentation” (priority 1976, dated 1977)
